{"source": "patent US11814352B2", "about": "“Salts formed by 2-(1-acyloxy-n-pentyl) benzoic acid and basic amino acid or aminoguanidine, and preparation method and application thereof” (JIANGSU KANION PHARMACEUTICAL CO., LTD., priority 2018, dated 2023)", "key": {"[1]": {"tested_on": "arteriovenous bypass thrombosis in rats", "assay": "Effect on arteriovenous bypass thrombosis in rats", "assay_type": "in vivo, SD rats", "settings": "10 mg/kg/day tail vein 7 days", "protocol": "Male SD rats, weighing 250-280 g, purchased from Beijing Vital River Laboratory Animal Technology Co., Ltd., raised in an SPF breeding environment with indoor temperature controlled at 23±2° C., and allowed to freely eat and drink. The total number of the animals is 64.\nModel group: injected with the same volume of normal saline (containing 1% DMSO) through the tail vein, and administered continuously for 7 days. The test was started 2 h after the last dose (n=8).\nThe dose of all drugs was 10 mg/kg/day. The drugs were formulated into normal saline solutions containing 1% DMSO, and injected through the tail vein for 7 consecutive days. The test was started 2 hours after the last dose (n=8).\nThe rats were intraperitoneally injected with a 3% pentobarbital sodium solution (30 mg/kg). After anesthesia, the rats were immobilized in the supine position, and a median cervical incision was made to separate the right common carotid artery and left external jugular vein. A 6 cm long suture was put in the middle of a polyethylene tube (the suture needs to be weighed before being put in the tube), and the polyethylene tube was filled with heparin saline (50 U/mL). The polyethylene tube was inserted into the separated blood vessels to make the artery and vein form a loop. After 15 min of circulation of the blood flow, the suture was taken out, and the suture with thrombus was collected and weighed immediately. Then, after the suture was dried at room temperature for 24 h, the dry weight was determined. The total weight minus the weight of the suture was the wet weight of the thrombus, and the dry weight minus the weight of the suture was the dry weight of the thrombus."}, "[2]": {"assay": "Pharmacokinetics of metabolites in rat plasma after intravenous injection of I1s", "assay_type": "in vivo, SD male rats", "settings": "metabolite in rat plasma after I1s 25 mg/kg tail vein; rats 1-3; listed as M4", "protocol": "(§1) 12 clean SD male rats, provided by Qinglongshan Animal Breeding Farm in Jiangning District, Nanjing. The production license number is SCXK (Jiangsu) 2017-0001. The body weight of the rats ranges from 180 to 220 g. The rats were used after being raised in the laboratory of an experimental animal center for 2 days after purchase, fasted for 12 hours before administration and 6 hours after administration, and were allowed to freely drink during the test period.\n(§2) The concentration of the original drugs and metabolites in the rat blood were determined by LC-MS/MS, and WinNonlin pharmacokinetics professional software and a statistical moment method were used for calculation to obtain the corresponding pharmacokinetic parameters."}, "[3]": {"tested_on": "AA induced platelet aggregation", "assay": "In vitro anti-platelet aggregation, AA induced (turbidimetry, PRP)", "assay_type": "cell-based, rabbits", "settings": "read-out: IC50 AA (1 mM); rabbit PRP, inducer AA 1 mM, 37° C.", "protocol": "(§3) The animals were used for experiments after 1 week.\n(§4) The common carotid artery was separated, and a polyethylene tube was inserted into the common carotid artery to collect blood. […] The upper beige suspension was pipetted to obtain the platelet-rich plasma (PRP). […] The PRP was adjusted with the PPP to make the platelet count at 1×10^8/mL.\n(§5) 260 μL of platelet-rich plasma (PRP) was added into a turbidimetric tube. Then 10 μL of test compounds with different concentrations, positive control drugs or normal saline were separately added, and the plasma was incubated at 37° C. for 5 min. Then 30 μL of inducers were added in sequence. The final concentration of an inducer ADP is 10 μM, and the final concentration of an inducer AA is 1 mM. […] Inhibition rate of platelet aggregation (IRPA)=(platelet aggregation rate of the control group−platelet aggregation rate of the experimental group)/platelet aggregation rate of the control group×100%."}, "[4]": {"assay": "Solubility test (saturated solubility in water)", "assay_type": "physicochemical", "settings": "25±2° C.", "protocol": "Test method: 10 mg of a test sample (solid was ground into fine powder) was weighed and added to a certain amount of solvent at 25±2° C. (the temperature of a water bath is controlled at 25° C.), and the solution was shaken vigorously for 30 s every 5 min. The dissolution was observed within 30 min. When there were no visible solute particles or droplets, the test sample was regarded as completely dissolved."}, "[5]": {"assay": "Concentration of metabolites in rat brain tissue after intravenous injection of I1s", "assay_type": "in vivo", "settings": "for Concentration in brain tissue (single rats): listed as M4", "protocol": "as §1, §2"}, "[6]": {"tested_on": "ADP induced platelet aggregation", "assay": "In vitro anti-platelet aggregation, ADP induced (turbidimetry, PRP)", "assay_type": "cell-based, rabbits", "settings": "read-out: IC50 ADP (10 μM); rabbit PRP, inducer ADP 10 μM, 37° C.", "protocol": "as §3, §4, §5"}, "MCAO rats": {"tested_on": "MCAO rats", "assay": "Cerebral infarction, cerebral edema and nerve function of rats with focal cerebral ischemia (MCAO)", "assay_type": "in vivo, SD rats", "settings": "rat, in vivo, iv, 10 mg/kg/day", "protocol": "The total number of the animals was 88.\nSham operation group: equal volume of normal saline (containing 1% DMSO) (iv. 3 days), TTC, cerebral edema and neurological function score (n=8); […]\nThe middle cerebral arteries of the rats were blocked by a suture-occluded method, and reperfused after 2 h. […] All drugs were formulated into normal saline solutions containing 1% DMSO for administration, and the duration of administration was controlled at approximately 1 min. […] 2 h after the last administration, the neurological defect scores were firstly obtained, and then the rats of each group were sacrificed. The whole brains were taken out and weighed (wet weight), TTC stained, and dried to determine the effects of the compounds on cerebral infarction and cerebral edema.\n2 h after the last administration, the neurological defects of the animals were graded and scored by the Longa's method.\nAfter the neurobehavioral examination was completed, four coronal incisions were made on the whole brains of the rats on the optic chiasma and 2 mm anteroposterior positions of the optic chiasma. After the whole brains were cut into five slices, the brain slices were quickly placed in 5 ml of phosphate buffer solution containing 2% TTC, and incubated at 37° C. in the dark. In the incubation process, the brain slices were turned once every 5 min. After 10 min of incubation, the brain slices were taken out and pictures were taken with a digital camera (Olympus C-4000, Japan).\nThe calculation formula of brain water content is as follows: Water content of brain tissue (%)=(wet weight of brain tissue−dry weight of brain tissue)/wet weight of brain tissue×100%; Cerebral edema rate (%)=water content of brain tissue of each group (%)−water content of brain tissue of sham operation group (%)/water content of brain tissue of sham operation group (%)×100%; Inhibition rate of cerebral edema (%)=(rate of cerebral edema of model group (%)−rate of cerebral edema of administration group (%))/rate of cerebral edema of model group (%)×100%."}, "[7]": {"assay": "Concentration of metabolites in rat brain tissue after intravenous injection of I1s", "assay_type": "in vivo"}, "[8]": {"molecular_target": "hERG potassium channel of CHO-hERG cells (Homo sapiens, UniProt Q12809)", "sequence (Q12809 whole entry)": "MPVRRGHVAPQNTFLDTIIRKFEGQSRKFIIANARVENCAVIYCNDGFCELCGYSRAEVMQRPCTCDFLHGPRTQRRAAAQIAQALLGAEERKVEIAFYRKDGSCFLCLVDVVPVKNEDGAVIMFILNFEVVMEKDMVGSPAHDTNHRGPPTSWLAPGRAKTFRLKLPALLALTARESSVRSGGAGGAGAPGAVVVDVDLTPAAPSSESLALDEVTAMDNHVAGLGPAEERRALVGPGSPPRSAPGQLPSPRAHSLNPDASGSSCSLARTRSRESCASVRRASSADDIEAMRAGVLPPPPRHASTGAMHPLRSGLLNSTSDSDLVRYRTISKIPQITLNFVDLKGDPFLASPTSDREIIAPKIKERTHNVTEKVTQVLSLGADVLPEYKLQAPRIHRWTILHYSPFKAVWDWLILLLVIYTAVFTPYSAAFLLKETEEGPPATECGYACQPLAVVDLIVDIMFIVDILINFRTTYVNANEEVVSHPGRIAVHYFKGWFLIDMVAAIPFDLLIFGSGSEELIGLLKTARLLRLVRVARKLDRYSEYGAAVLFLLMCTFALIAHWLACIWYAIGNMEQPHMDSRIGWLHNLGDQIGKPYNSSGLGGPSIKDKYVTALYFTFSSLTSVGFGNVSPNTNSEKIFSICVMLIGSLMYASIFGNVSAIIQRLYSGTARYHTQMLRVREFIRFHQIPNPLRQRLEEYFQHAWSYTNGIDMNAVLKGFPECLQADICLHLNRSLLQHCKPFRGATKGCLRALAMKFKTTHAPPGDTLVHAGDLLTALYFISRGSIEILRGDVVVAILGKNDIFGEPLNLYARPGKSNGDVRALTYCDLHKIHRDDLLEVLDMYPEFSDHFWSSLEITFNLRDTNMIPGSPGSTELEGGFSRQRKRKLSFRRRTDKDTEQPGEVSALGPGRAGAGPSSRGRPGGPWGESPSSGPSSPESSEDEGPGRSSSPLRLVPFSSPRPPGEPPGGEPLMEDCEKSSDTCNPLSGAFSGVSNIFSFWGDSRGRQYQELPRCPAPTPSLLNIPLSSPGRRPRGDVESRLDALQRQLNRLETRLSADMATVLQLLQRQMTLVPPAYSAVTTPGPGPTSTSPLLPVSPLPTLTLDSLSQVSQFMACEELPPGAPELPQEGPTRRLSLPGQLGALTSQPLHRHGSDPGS", "assay": "Effect on hERG potassium channel (automatic patch clamp)", "settings": "CHO-hERG cells, maximum concentration"}, "[9]": {"settings": "0.5 h after intravenous injection of I1s"}, "[10]": {"settings": "1 h after intravenous injection of I1s"}, "[11]": {"settings": "6 h after intravenous injection of I1s"}}, "note": "Where “and” joins values, the source holds several entries; their conditions need not be identical. Identical values can stand only once. Marks after values point to notes of the source that are not given here."}
{"compound": "CCCC[C@@H]1OC(=O)c2ccccc21", "note": "[(S)-NBP, (S)-butylphthalide]", "values": [{"measurement": "Dry weight of thrombus", "setting": "[1]; 2 h after last dose", "value": "7.44 ± 0.37"}, {"measurement": "Wet weight of thrombus", "setting": "[1]; 2 h after last dose", "value": "24.18 ± 1.02"}, {"measurement": "Inhibition rate (dry weight of thrombus)", "setting": "[1]; vs model group", "value": "25.95^## %"}, {"measurement": "Inhibition rate (wet weight of thrombus)", "setting": "[1]; vs model group", "value": "33.24^## %"}, {"measurement": "AUC(0-t)", "setting": "[2]", "value": "32828.9 ng·h/mL and 40061.1 ng·h/mL and 34160.8 ng·h/mL"}, {"measurement": "AUC(0-∞)", "setting": "[2]", "value": "32988.3 ng·h/mL and 40153.8 ng·h/mL and 34287.8 ng·h/mL"}, {"measurement": "Cl", "setting": "[2]", "value": "12.631 mL/min/kg and 10.377 mL/min/kg and 12.152 mL/min/kg"}, {"measurement": "Cmax", "setting": "[2]", "value": "52.5136 µg/mL and 69.7952 µg/mL and 65.7002 µg/mL"}, {"measurement": "Vz", "setting": "[2]", "value": "3.704 L/kg and 2.6838 L/kg and 3.6105 L/kg"}, {"measurement": "IC50", "setting": "[3]", "value": "500 ± 40", "unit": "µM"}, {"measurement": "Saturated solubility in H2O, Mean", "setting": "[4]", "value": 540, "unit": "µg/mL"}, {"measurement": "Concentration in brain tissue (single rats)", "setting": "[5]; [9]", "value": "556.35 ng/g and 627.76 ng/g and 633.25 ng/g"}, {"measurement": "Concentration in brain tissue (single rats)", "setting": "[5]; [10]", "value": "131.66 ng/g and 119.84 ng/g and 388.42* ng/g"}, {"measurement": "Concentration in brain tissue (single rats)", "setting": "[5]; [11]", "value": "27.06 ng/g and 30.85 ng/g and 51.78 ng/g"}, {"measurement": "Passage through the blood-brain barrier", "setting": "[5]; detected in rat brain tissue after iv I1s", "value": "could all pass through the blood-brain barrier"}, {"measurement": "IC50", "setting": "[6]", "value": "1290 ± 110", "unit": "µM"}, {"measurement": "Cerebral edema", "setting": "MCAO rats", "value": "4.45 ± 4.58", "unit": "%"}, {"measurement": "Infarct volume", "setting": "MCAO rats", "value": "14.18 ± 2.69", "unit": "%"}, {"measurement": "Inhibition rate of cerebral edema", "setting": "MCAO rats", "value": 72.28, "unit": "%"}, {"measurement": "Inhibition rate of infarct volume", "setting": "MCAO rats", "value": 66.12, "unit": "%"}, {"measurement": "Concentration in brain tissue, Mean", "setting": "[7]; [9]", "value": 605.79, "unit": "ng/g"}, {"measurement": "Concentration in brain tissue, Mean", "setting": "[7]; [10]", "value": 125.75, "unit": "ng/g"}, {"measurement": "Concentration in brain tissue, Mean", "setting": "[7]; [11]", "value": 36.56, "unit": "ng/g"}, {"measurement": "inhibition rate of hERG potassium channel at the maximum concentration", "setting": "[8]", "value": 41.45, "unit": "%"}]}
